In article PMC7179994 (Thrombosis and haemostasis, 2019):

Experiments:
[1] = tested on: leukocyte (neutrophil) infiltration into the peritoneum, wild-type C57BL/6J mice; experiment: Mouse model of peritonitis, leukocyte infiltration, wild-type mice; type: in vivo; conditions: 0.8 μM i.v. in 200 μL PBS, without (β15–44)2, 4 hours, n = 7
[2] = tested on: transendothelial migration of leukocytes; conditions: fibrinogen; cited from earlier work

CN1CCN(CCOc2cc(OC3CCOCC3)c3c(Nc4c(Cl)ccc5c4OCO5)ncnc3c2)CC1 [Saracatinib]
Infiltration of leukocytes, Fyn inhibitor alone [1]: no effect on infiltration of leukocytes

fibrinogen
Transendothelial migration of leukocytes [2]: promotes transendothelial migration of leukocytes
